In publication PMC3726784, “Synthesis, Structure and Antibacterial Activity of Potent DNA Gyrase Inhibitors: N′-Benzoyl-3-(4-Bromophenyl)-1H-Pyrazole-5-Carbohydrazide Derivatives” (PLoS ONE, 2013):
pIC50: −log10 of the molar value. ≈ marks a conversion by molar mass, not a printed value.

Assays:
[1] = tested on: Bacillus subtilis ATCC 6633; test: In vitro antibacterial assay (MIC, MTT colorimetric method); assay type: cell-based; conditions: B. subtilis ATCC 6633, MH medium, 37°C; for MIC: Bacillus subtilis, ATCC6633, 24 h, read-out: Minimum inhibitory concentrations, B. subtilis
Protocol: (§1) The activities of synthesized compounds were tested against Bacillus subtilis ATCC 6633, Escherichia coli ATCC 35218, Pseudomonas aeruginosa ATCC 27853 and Staphylococcus aureus ATCC 6538 which may be causal agents of some serious infections in humans using MH medium (Mueller-Hinton medium: casein hydrolysate 17.5 g, soluble starch 1.5 g, beef extract 1000 mL). Also included are the activities of reference compounds kanamycin.
(§2) The antibacterial activity of the synthesized compounds was tested against B. subtilis, E. coli, P. aeruginosa and S. aureus using MH medium (Mueller-Hinton medium: casein hydrolysate 17.5 g, soluble starch 1.5 g, beef extract 1000 mL). The MICs (minimum inhibitory concentrations) of the test compounds were determined by a colorimetric method using the dye MTT (3-(4,5-dimethylth-iazol-2-yl)-2,5-diphenyl tetrazoliumbromide). A stock solution of the synthesized compound (100 µg/mL) in DMSO was prepared and graded quantities of the test compounds were incorporated in specified quantity of sterilized liquid MH medium. A specified quantity of the medium containing the compound was poured into microtitration plates. Suspension of the microorganism was prepared to contain approximately 10^5 cfu/mL and applied to microtitration plates with serially diluted compounds in DMSO to be tested and incubated at 37°C for 24 h. After the MICs were visually determined on each of the microtitration plates, 50 µL of PBS (phosphate buffered saline 0.01 mol/L, pH 7.4, Na2HPO4·12H2O 2.9 g, KH2PO4 0.2 g, NaCl 8.0 g, KCl 0.2 g, distilled water 1000 mL) containing 2 mg of MTT/mL was added to each well. Incubation was continued at room temperature for 4–5 h. The content of each well was removed, and 100 µL of isopropanol containing 5% 1 mol/L HCl was added to extract the dye. After 12 h of incubation at room temperature, the optical density (OD) was measured with a microplate reader at 550 nm.

[2] = tested on: Escherichia coli ATCC 35218; test: as above; assay type: cell-based; conditions: E. coli ATCC 35218, MH medium, 37°C, 24 h; for MIC: Escherichia coli, ATCC35218, read-out: Minimum inhibitory concentrations, E. coli
Protocol: as §1, §2

[3] = tested on: Pseudomonas aeruginosa ATCC 27853; test: as above; assay type: cell-based; conditions: P. aeruginosa ATCC 27853, MH medium, 37°C, 24 h; for MIC: Pseudomonas aeruginosa, ATCC27853, read-out: Minimum inhibitory concentrations, P.aeruginosa
Protocol: as §1, §2

[4] = tested on: Staphylococcus aureus ATCC 6538; test: as above; assay type: cell-based; conditions: S. aureus ATCC 6538, MH medium, 37°C, 24 h; for MIC: Staphylococcus aureus, ATCC6538, read-out: Minimum inhibitory concentrations, S. aureus
Protocol: as §1, §2

S. aureus DNA gyrase = molecular target: T1, S. aureus DNA gyrase (Staphylococcus aureus, UniProt P0A0K8); test: biochemical; conditions: enzyme purified from S. aureus, supercoiling
T1 construct: purified by the F. Blanche [25] from a crude extract of S. aureus; endogenous in cells
T1 sequence (P0A0K8 whole entry): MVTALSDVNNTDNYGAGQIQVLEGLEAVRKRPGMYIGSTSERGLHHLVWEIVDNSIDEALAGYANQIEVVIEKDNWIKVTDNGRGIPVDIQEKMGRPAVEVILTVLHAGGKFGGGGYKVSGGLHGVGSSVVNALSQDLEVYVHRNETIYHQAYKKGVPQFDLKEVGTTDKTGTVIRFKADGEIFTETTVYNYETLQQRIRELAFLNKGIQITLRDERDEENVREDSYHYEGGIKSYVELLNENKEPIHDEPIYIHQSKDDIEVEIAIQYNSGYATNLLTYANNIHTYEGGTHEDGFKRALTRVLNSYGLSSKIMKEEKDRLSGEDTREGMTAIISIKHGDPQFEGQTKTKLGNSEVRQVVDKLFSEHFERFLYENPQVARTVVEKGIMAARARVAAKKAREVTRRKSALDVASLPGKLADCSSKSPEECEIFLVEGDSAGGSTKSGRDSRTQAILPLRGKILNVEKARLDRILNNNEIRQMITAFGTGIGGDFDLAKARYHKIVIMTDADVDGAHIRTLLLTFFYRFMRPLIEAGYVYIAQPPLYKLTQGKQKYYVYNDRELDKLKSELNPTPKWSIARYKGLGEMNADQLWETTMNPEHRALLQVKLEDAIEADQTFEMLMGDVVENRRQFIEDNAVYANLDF
T1 sequence (P20831 whole entry partner): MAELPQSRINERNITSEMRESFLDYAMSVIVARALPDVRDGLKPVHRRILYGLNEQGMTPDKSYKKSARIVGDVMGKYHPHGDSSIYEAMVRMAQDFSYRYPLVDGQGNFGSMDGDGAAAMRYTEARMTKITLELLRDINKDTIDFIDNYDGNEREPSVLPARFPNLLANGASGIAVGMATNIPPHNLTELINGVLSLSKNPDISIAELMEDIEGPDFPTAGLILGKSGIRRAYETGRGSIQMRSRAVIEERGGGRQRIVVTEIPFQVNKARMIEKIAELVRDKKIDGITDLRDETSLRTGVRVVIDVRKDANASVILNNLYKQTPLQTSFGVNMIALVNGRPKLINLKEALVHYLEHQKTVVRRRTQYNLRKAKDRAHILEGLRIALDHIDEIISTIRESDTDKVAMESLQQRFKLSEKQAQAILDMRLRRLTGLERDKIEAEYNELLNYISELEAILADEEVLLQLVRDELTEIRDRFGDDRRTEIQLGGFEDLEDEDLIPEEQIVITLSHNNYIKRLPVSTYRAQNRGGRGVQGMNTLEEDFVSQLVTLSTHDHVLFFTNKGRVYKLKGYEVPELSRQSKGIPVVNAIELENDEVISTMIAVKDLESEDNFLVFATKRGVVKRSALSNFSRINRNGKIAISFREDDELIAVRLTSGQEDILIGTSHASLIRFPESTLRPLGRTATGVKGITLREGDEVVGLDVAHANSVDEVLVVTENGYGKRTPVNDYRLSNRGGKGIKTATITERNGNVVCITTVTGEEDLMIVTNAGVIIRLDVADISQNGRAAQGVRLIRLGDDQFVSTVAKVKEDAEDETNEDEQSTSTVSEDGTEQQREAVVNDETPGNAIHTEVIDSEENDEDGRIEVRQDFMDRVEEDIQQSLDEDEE
Source text: (§3) To elucidate the mechanism by which the pyrazole derivatives induce antibacterial activity, the inhibitory activities of selected compounds were examined against DNA gyrase isolated from B. subtilis and S. aureus.
The S. aureus DNA gyrase were purified by the F. Blanche from a crude extract of S. aureus and cultivated with medium B, which was composed of 10 g of polypeptone, 2 g of yeast extract, 8 g of Na2HPO4, 2 g of KH2PO4, 1.2 g of (NH4)2SO4, 0.2 g of MgSO4, 4 g of glucose perliter of distilled water. Supercoiling and decatenation were performed according to F. B lanche.

B. subtilis DNA gyrase = B. subtilis DNA gyrase (Bacillus subtilis, UniProt P05652); test: biochemical
B. subtilis DNA gyrase, sequence (P05652 whole entry): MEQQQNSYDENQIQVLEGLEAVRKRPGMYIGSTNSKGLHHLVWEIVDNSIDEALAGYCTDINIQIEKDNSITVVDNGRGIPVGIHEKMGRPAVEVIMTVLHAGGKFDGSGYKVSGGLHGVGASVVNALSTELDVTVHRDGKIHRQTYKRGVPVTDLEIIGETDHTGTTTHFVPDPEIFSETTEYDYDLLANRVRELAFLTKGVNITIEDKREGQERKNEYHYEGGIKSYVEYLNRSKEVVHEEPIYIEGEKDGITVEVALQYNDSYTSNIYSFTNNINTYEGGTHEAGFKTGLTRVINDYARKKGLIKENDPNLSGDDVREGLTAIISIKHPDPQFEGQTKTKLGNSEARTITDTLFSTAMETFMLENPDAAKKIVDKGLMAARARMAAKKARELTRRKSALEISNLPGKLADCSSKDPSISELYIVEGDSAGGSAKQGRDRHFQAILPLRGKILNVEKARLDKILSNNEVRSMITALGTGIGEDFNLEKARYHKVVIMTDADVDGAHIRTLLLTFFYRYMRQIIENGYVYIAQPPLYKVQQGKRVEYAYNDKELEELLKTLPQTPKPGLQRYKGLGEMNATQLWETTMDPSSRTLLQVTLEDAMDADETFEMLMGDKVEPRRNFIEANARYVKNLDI
B. subtilis DNA gyrase, sequence (P05653 whole entry, further chain): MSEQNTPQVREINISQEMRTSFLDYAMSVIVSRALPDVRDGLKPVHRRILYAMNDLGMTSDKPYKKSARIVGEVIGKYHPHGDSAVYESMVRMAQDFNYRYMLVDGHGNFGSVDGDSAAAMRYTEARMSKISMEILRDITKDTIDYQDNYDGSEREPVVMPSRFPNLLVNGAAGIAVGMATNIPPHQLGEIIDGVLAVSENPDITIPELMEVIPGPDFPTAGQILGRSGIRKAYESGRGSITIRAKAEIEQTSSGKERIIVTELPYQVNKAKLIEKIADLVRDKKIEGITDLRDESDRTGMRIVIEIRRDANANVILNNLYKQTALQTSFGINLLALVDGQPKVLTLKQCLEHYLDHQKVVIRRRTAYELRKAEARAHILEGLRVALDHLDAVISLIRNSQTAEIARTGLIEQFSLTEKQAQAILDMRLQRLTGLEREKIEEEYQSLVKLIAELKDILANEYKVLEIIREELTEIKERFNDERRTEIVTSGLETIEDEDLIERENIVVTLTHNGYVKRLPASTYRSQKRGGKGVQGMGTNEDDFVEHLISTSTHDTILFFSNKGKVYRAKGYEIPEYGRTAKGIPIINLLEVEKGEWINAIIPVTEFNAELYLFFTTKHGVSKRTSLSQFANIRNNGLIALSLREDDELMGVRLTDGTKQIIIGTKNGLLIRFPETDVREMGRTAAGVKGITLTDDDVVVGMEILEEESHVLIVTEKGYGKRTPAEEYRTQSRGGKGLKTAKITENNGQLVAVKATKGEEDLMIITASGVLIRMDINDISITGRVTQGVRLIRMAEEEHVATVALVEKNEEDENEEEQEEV
Protocol: as §3
The B. subtilis DNA gyrase were purified by the methods of E. Orr.: Cells were suspended in an equal volume of 25 mM HEPES-KOH (pH 8.0)-100 mM KCl and stored frozen at −70°C. The frozen cell suspension was thawed and diluted with an equal volume of 25 mM HEPES-KOH (pH 8.0)-0.4 M sucrose-20 mM magnesium acetate-1 mM dithiothreitol-5 mM PMSF. All operations were performed at 0–4°C. Lysozyme was added to a final concentration, and the mixture was incubated for 2.5 h. One-third volume of 2 M KCl-1.5% Brij was added, and the incubation was continued for 15 min. The lysate was then centrifuged for 90 min intirotor. The supernatant was adjusted to a KCl concentration of 0.2 M by dilution with 25 mM HEPES-KOH (pH 8.0)-1 mM dithiothreitol-1mMEDTA-0.5 mM pmsf-10% ethylene glycol and applied to a column. The column was washed with starting buffer and eluted successively with buffer containing 20 mM ATP-25 mM magnesium acetate-0.2 M KCI, buffer (2 M KCI), and 5 M urea in buffer (0.2 M KCl).Protein-containing fractions were dialyzed against buffer (0.05 MKCI). Supercoiling and decatenation were carried out by the F. Blanche method.

O=C(NNC(=O)c1cc(-c2ccc(Br)cc2)n[nH]1)c1ccc(Cl)cc1 [3b, 3-(4-Bromophenyl)-N'-(4-chlorobenzoyl)-1H-pyrazole-5-carbohydrazide]
MIC [1]: 17.1 µg/mL (≈ 40.8 µM) | MIC [2]: > 50 µg/mL | MIC [3]: 50 µg/mL (≈ 119 µM) | MIC [4]: 15 µg/mL (≈ 35.7 µM) | melting point: 280 to 283 °C

Penicillin [reference compound]
Minimum inhibitory concentrations, B. subtilis ([1]; 24 h): 1.56 µg/mL | Minimum inhibitory concentrations, E. coli [2]: 6.25 µg/mL | Minimum inhibitory concentrations, P.aeruginosa [3]: 6.25 µg/mL | Minimum inhibitory concentrations, S. aureus [4]: 1.56 µg/mL

O=C(NNC(=O)c1ccccc1F)c1cc(-c2ccc(Br)cc2)n[nH]1 [3m, 3-(4-Bromophenyl)-N'-(2-fluorobenzoyl)-1H-pyrazole-5-carbohydrazide]
MIC [1]: 25 µg/mL (≈ 62 µM) | MIC [2]: > 50 µg/mL | MIC [3]: > 50 µg/mL | MIC [4]: 22.1 µg/mL (≈ 54.8 µM) | melting point: 297 to 298 °C

Cc1cccc(C(=O)NNC(=O)c2cc(-c3ccc(Br)cc3)n[nH]2)c1 [3j, 3-(4-Bromophenyl)-N'-(3-methylbenzoyl)-1H-pyrazole-5-carbohydrazide]
MIC [2]: 50 µg/mL (≈ 125 µM) | MIC [3]: 12.5 µg/mL (≈ 31.3 µM) | MIC [4]: 1.12 µg/mL (≈ 2.81 µM) | pIC50 (S. aureus DNA gyrase): 6.49 | pIC50 (B. subtilis DNA gyrase): 5.09 | melting point: 287 to 288 °C

O=C(NNC(=O)c1cc(-c2ccc(Br)cc2)n[nH]1)c1cccc(F)c1 [3g, 3-(4-Bromophenyl)-N'-(3-fluorobenzoyl)-1H-pyrazole-5-carbohydrazide]
MIC [1]: 25 µg/mL (≈ 62 µM) | MIC [2]: > 50 µg/mL | MIC [3]: 50 µg/mL (≈ 124 µM) | MIC [4]: 13 µg/mL (≈ 32.2 µM) | melting point: 278 to 280 °C

O=C(NNC(=O)c1ccccc1[N+](=O)[O-])c1cc(-c2ccc(Br)cc2)n[nH]1 [3r, 3-(4-Bromophenyl)-N'-(2-nitrobenzoyl)-1H-pyrazole-5-carbohydrazide]
MIC [1]: 50 µg/mL (≈ 116 µM) | MIC [2]: > 50 µg/mL | MIC [3]: > 50 µg/mL | MIC [4]: 25 µg/mL (≈ 58.1 µM) | melting point: 266 to 267 °C

COc1ccccc1C(=O)NNC(=O)c1cc(-c2ccc(Br)cc2)n[nH]1 [3q, 3-(4-Bromophenyl)-N'-(2-methoxybenzoyl)-1H-pyrazole-5-carbohydrazide]
MIC [1]: 20.6 µg/mL (≈ 49.6 µM) | MIC [2]: > 50 µg/mL | MIC [3]: > 50 µg/mL | MIC [4]: 18.7 µg/mL (≈ 45.1 µM) | melting point: 287 to 290 °C

O=C(NNC(=O)c1cc(-c2ccc(Br)cc2)n[nH]1)c1cccc(Cl)c1 [3h, 3-(4-Bromophenyl)-N'-(3-chlorobenzoyl)-1H-pyrazole-5-carbohydrazide]
MIC [1]: 6.25 µg/mL (≈ 14.9 µM) | MIC [2]: > 50 µg/mL | MIC [3]: 50 µg/mL (≈ 119 µM) | MIC [4]: 12.6 µg/mL (≈ 29.9 µM) | melting point: 246 to 248 °C

O=C(NNC(=O)c1cc(-c2ccc(Br)cc2)n[nH]1)c1cccc([N+](=O)[O-])c1 [3l, 3-(4-Bromophenyl)-N'-(3-nitrobenzoyl)-1H-pyrazole-5-carbohydrazide]
MIC [1]: 10.8 µg/mL (≈ 25.1 µM) | MIC [2]: > 50 µg/mL | MIC [3]: 50 µg/mL (≈ 116 µM) | MIC [4]: 10.8 µg/mL (≈ 25.1 µM) | melting point: 275 to 276 °C

O=C(NNC(=O)c1cc(-c2ccc(Br)cc2)n[nH]1)c1ccc([N+](=O)[O-])cc1 [3f, 3-(4-Bromophenyl)-N'-(4-nitrobenzoyl)-1H-pyrazole-5-carbohydrazide]
MIC [1]: 25 µg/mL (≈ 58.1 µM) | MIC [2]: > 50 µg/mL | MIC [3]: > 50 µg/mL | MIC [4]: 18 µg/mL (≈ 41.9 µM) | melting point: 255 to 257 °C

O=C(NNC(=O)c1cc(-c2ccccc2Br)n[nH]1)c1ccc(Br)cc1 [3o, N'-(4-Bromobenzoyl)-3-(2-bromophenyl)-1H-pyrazole-5-carbohydrazide]
MIC [1]: 23.1 µg/mL (≈ 49.8 µM) | MIC [2]: > 50 µg/mL | MIC [3]: > 50 µg/mL | MIC [4]: 21 µg/mL (≈ 45.2 µM) | melting point: 281 to 283 °C

Cc1ccccc1C(=O)NNC(=O)c1cc(-c2ccc(Br)cc2)n[nH]1 [3p, 3-(4-Bromophenyl)-N'-(2-methylbenzoyl)-1H-pyrazole-5-carbohydrazide]
MIC [1]: 12.2 µg/mL (≈ 30.4 µM) | MIC [2]: 50 µg/mL (≈ 125 µM) | MIC [3]: 12.5 µg/mL (≈ 31.3 µM) | MIC [4]: 8.08 µg/mL (≈ 20.2 µM) | pIC50 (S. aureus DNA gyrase): 4.88 | pIC50 (B. subtilis DNA gyrase): 5.90 | melting point: 292 to 294 °C

O=C(NNC(=O)c1cc(-c2ccc(Br)cc2)n[nH]1)c1ccc(Br)cc1 [3c, N'-(4-Bromobenzoyl)-3-(4-bromophenyl)-1H-pyrazole-5-carbohydrazide]
MIC [1]: 10.2 µg/mL (≈ 22 µM) | MIC [2]: > 50 µg/mL | MIC [3]: 50 µg/mL (≈ 108 µM) | MIC [4]: 13.8 µg/mL (≈ 29.7 µM) | melting point: 297 to 298 °C

COc1cccc(C(=O)NNC(=O)c2cc(-c3ccc(Br)cc3)n[nH]2)c1 [3k, 3-(4-Bromophenyl)-N'-(3-methoxybenzoyl)-1H-pyrazole-5-carbohydrazide]
MIC [2]: 50 µg/mL (≈ 120 µM) | MIC [3]: 12.5 µg/mL (≈ 30.1 µM) | MIC [4]: 0.78 µg/mL (≈ 1.88 µM) | pIC50 (S. aureus DNA gyrase): 6.44 | pIC50 (B. subtilis DNA gyrase): 6.22 | melting point: 251 to 253 °C

COc1ccc(C(=O)NNC(=O)c2cc(-c3ccc(Br)cc3)n[nH]2)cc1 [3e, 3-(4-Bromophenyl)-N'-(4-methoxybenzoyl)-1H-pyrazole-5-carbohydrazide]
MIC [1]: 10.1 µg/mL (≈ 24.4 µM) | MIC [2]: 50 µg/mL (≈ 120 µM) | MIC [3]: 12.5 µg/mL (≈ 30.1 µM) | MIC [4]: 6.68 µg/mL (≈ 16.1 µM) | pIC50 (S. aureus DNA gyrase): 5.09 | pIC50 (B. subtilis DNA gyrase): 4.53 | melting point: 281 to 282 °C

Cc1ccc(C(=O)NNC(=O)c2cc(-c3ccc(Br)cc3)n[nH]2)cc1 [3d, 3-(4-Bromophenyl)-N'-(4-methylbenzoyl)-1H-pyrazole-5-carbohydrazide]
MIC [2]: 50 µg/mL (≈ 125 µM) | MIC [3]: 12.5 µg/mL (≈ 31.3 µM) | MIC [4]: 3.66 µg/mL (≈ 9.17 µM) | pIC50 (S. aureus DNA gyrase): 5.43 | pIC50 (B. subtilis DNA gyrase): 5.19 | melting point: 270 to 272 °C

O=C(NNC(=O)c1ccccc1Cl)c1cc(-c2ccc(Br)cc2)n[nH]1 [3n, 3-(4-Bromophenyl)-N'-(2-chlorobenzoyl)-1H-pyrazole-5-carbohydrazide]
MIC [1]: 12.2 µg/mL (≈ 29.2 µM) | MIC [2]: > 50 µg/mL | MIC [3]: > 50 µg/mL | MIC [4]: 17 µg/mL (≈ 40.4 µM) | melting point: 280 to 281 °C

O=C(NNC(=O)c1cc(-c2ccc(Br)cc2)n[nH]1)c1ccc(F)cc1 [3a, 3-(4-Bromophenyl)-N'-(4-fluorobenzoyl)-1H-pyrazole-5-carbohydrazide]
MIC [1]: 12.5 µg/mL (≈ 31.1 µM) | MIC [2]: > 50 µg/mL | MIC [3]: 50 µg/mL (≈ 124 µM) | MIC [4]: 15 µg/mL (≈ 37.2 µM) | melting point: 284 to 287 °C

O=C(NNC(=O)c1cc(-c2ccc(Br)cc2)n[nH]1)c1ccccc1 [3s, N'-Benzoyl-3-(4-bromophenyl)-1H-pyrazole-5-carbohydrazide]
MIC [1]: 10.6 µg/mL (≈ 27.4 µM) | MIC [2]: 12.5 µg/mL (≈ 32.4 µM) | MIC [3]: 12.5 µg/mL (≈ 32.4 µM) | MIC [4]: 10.6 µg/mL (≈ 27.4 µM) | pIC50 (S. aureus DNA gyrase): 5.07 | pIC50 (B. subtilis DNA gyrase): 5.59 | melting point: 288 to 290 °C

O=C(NNC(=O)c1cc(-c2cccc(Br)c2)n[nH]1)c1ccc(Br)cc1 [3i, N'-(4-Bromobenzoyl)-3-(3-bromophenyl)-1H-pyrazole-5-carbohydrazide]
MIC [1]: 12.6 µg/mL (≈ 27.1 µM) | MIC [2]: > 50 µg/mL | MIC [3]: 50 µg/mL (≈ 108 µM) | MIC [4]: 12.1 µg/mL (≈ 26.1 µM) | melting point: 229 to 231 °C
